Reference: US20100249082A1, “MODULATORS OF HYPOXIA INDUCIBLE FACTOR-1 AND RELATED USES” (Bionaut Pharmaceuticals INC., priority 2007, published 2010)

Experiments:
Na^+, K^+-ATPase [1] = biological target: T1, Na^+, K^+-ATPase (Homo sapiens, UniProt P05023); experiment: cell-based; details: for inhibition at 0.01 µM / inhibition at 0.1 µM / inhibition at 1 µM / inhibition at 5 µM / inhibition at 10 µM / inhibition at 50 µM: HEK293, HEK-293; for inhibition at 0.01 µM: Log[drug](M) −8.0; for inhibition at 5 µM: Log[drug](M) −5.3; for inhibition at 10 µM: Log[drug](M) −5.0; for inhibition at 50 µM: Log[drug](M) −4.3; for Rank order: HEK-293, ranked on potency (IC50 value); for Sample Solubility: HEK-293 screen test wells, 1% DMSO
T1 construct: The HEK-293 cell line endogenously expressing Na^+, K^+-ATPase; endogenous in cells; host or cells: HEK-293
Method: Cells were plated at a density of 50,000 cells/well in 96-well microplates and incubated at 37° C., 5% CO2 until 80-90% confluency was attained

Na^+, K^+-ATPase [2] = biological target: Na^+, K^+-ATPase (Cricetulus griseus, UniProt A0A8C2N4Z0); experiment: cell-based
Method: (§1) Compounds were screened using Ion Channel Research (ICR) technology and a non-radioactive Rubidium Uptake Assay
(§2) For all the test compounds and standard blockers, 100× solutions were used to prepare 1× test doses for Na^+, K^+-ATPase screen in CHO cell line. The final DMSO concentration in each well was 1%.
(§3) • 1. […] Rb^+ Uptake: Cells were washed with 200 μl of Rb^+ Uptake Buffer once and R^+ loaded by application of 198 μl R^+ Uptake Buffer. Compounds were added at 2 μl/well of a 100× stock solution in 100% DMSO in the uptake buffer followed by incubation for 30 minutes at room temperature (c. 22° C.). The total volume in each well was 200 μl (198 μl of R^+ Uptake Buffer and 2 μl of the 100× compound). The 100× compound solution gets diluted in R^+ Uptake Buffer to 1× and the DMSO to 1%. • 3. Wash: Residual R^+ and compound were removed by four successive washes with 200 μl of SPA-Wash Buffer. • 4. Cell Lysis: Intracellular samples were obtained by whole cell lysis with the application of 200 μl Lysis Solution. • 5. Analysis: The level of R^+ in the intracellular samples was measured by ICR8000 (Aurora Biomed Inc., Vancouver, Canada). using flame atomic absorption spectroscopy.

Na^+, K^+-ATPase [3] = experiment: cell-based; details: for Inhibition (%) / Normalized Uptake (%): CHO-K1; for Sample Solubility: CHO-K1 screen test wells, 1% DMSO
Method: as §1, §2, §3

[4] = Sample solubility noted in the rubidium uptake assay; assay type: physicochemical; details: DMSO 1.0%

`C[C@]12CCC(=NOCCCCN3CCCCC3)C=C1CCC1C2CC[C@]2(C)[C@@H](c3ccc(=O)oc3)CC[C@]12O` (some centres unmarked) [BP247, 3-[4-(Piperidinobutoxy)imino]-scillarinone] showed an IC50 (Na^+, K^+-ATPase [1]) of 0.183 µM, an inhibition at 0.01 µM (Na^+, K^+-ATPase [1]) of 0% and an inhibition at 0.1 µM (Na^+, K^+-ATPase [1]; Log[drug](M) −7.0) of 44.9%. It also gave an inhibition at 0.1 µM (Na^+, K^+-ATPase [1]; Log[drug](M) −7.3) of 17.1%, an inhibition at 1 µM (Na^+, K^+-ATPase [1]; Log[drug](M) −6.0) of 79.9% and an inhibition at 1 µM (Na^+, K^+-ATPase [1]; Log[drug](M) −6.3) of 68.4%. It also gave an inhibition at 5 µM (Na^+, K^+-ATPase [1]) of 94.8%, an inhibition at 10 µM (Na^+, K^+-ATPase [1]) of 93.5% and an inhibition at 50 µM (Na^+, K^+-ATPase [1]) of 100%. The Rank order (Na^+, K^+-ATPase [1]) was 1, the “Sample Solubility” value (Na^+, K^+-ATPase [1]) was “Good” and the IC50 (Na^+, K^+-ATPase [2]) was 47.4 µM. For the same molecule, the inhibition at 0.5 µM (Na^+, K^+-ATPase [2]; CHO-K1) was 0%, the remaining activity at 0.5 µM (Na^+, K^+-ATPase [2]; CHO-K1, 0.5 h, read-out: Normalized Uptake (%)) was 96% and the “Inhibition (%)” value (Na^+, K^+-ATPase [3]; dose 1.0 uM) was −0.3%. The “Normalized Uptake (%)” value (Na^+, K^+-ATPase [3]; dose 1.0 uM) was 96.2%, the “Inhibition (%)” value (Na^+, K^+-ATPase [3]; dose 5.0 uM) was 9.2% and the “Normalized Uptake (%)” value (Na^+, K^+-ATPase [3]; dose 5.0 uM) was 88.2%. For the same molecule, the “Inhibition (%)” value (Na^+, K^+-ATPase [3]; dose 10 uM) was 15.2%, the “Normalized Uptake (%)” value (Na^+, K^+-ATPase [3]; dose 10 uM) was 83.2% and the “Inhibition (%)” value (Na^+, K^+-ATPase [3]; dose 50 uM) was 44.9%. The “Normalized Uptake (%)” value (Na^+, K^+-ATPase [3]; dose 50 uM) was 58.3%, the “Inhibition (%)” value (Na^+, K^+-ATPase [3]; dose 100 uM) was 67.7% and the “Normalized Uptake (%)” value (Na^+, K^+-ATPase [3]; dose 100 uM) was 39.0%. The “Inhibition (%)” value (Na^+, K^+-ATPase [3]; dose 200 uM) was 89.0%, the “Normalized Uptake (%)” value (Na^+, K^+-ATPase [3]; dose 200 uM) was 21.1% and the “Inhibition (%)” value (Na^+, K^+-ATPase [3]; dose 500 uM) was 100.0%. The “Normalized Uptake (%)” value (Na^+, K^+-ATPase [3]; dose 500 uM) was 11.9% and the “Sample Solubility” value (Na^+, K^+-ATPase [3]) was “Good”.
`C[C@]12CCC(=NOCCCCCN3CCCCC3)C=C1CCC1C2CC[C@]2(C)[C@@H](c3ccc(=O)oc3)CC[C@]12O` (some centres unmarked) [BP248, 3-[5-(Piperidinopentoxy)imino]-scillarinone] showed an IC50 (Na^+, K^+-ATPase [1]) of 5.55 µM, an inhibition at 0.01 µM (Na^+, K^+-ATPase [1]) of 0% and an inhibition at 0.1 µM (Na^+, K^+-ATPase [1]; Log[drug](M) −7.0) of 1.7%. It also gave an inhibition at 0.1 µM (Na^+, K^+-ATPase [1]; Log[drug](M) −7.3) of 0.8%, an inhibition at 1 µM (Na^+, K^+-ATPase [1]; Log[drug](M) −6.0) of 10.1% and an inhibition at 1 µM (Na^+, K^+-ATPase [1]; Log[drug](M) −6.3) of 4.5%. The inhibition at 5 µM (Na^+, K^+-ATPase [1]) was 44.7%, the inhibition at 10 µM (Na^+, K^+-ATPase [1]) was 74% and the inhibition at 50 µM (Na^+, K^+-ATPase [1]) was 100%. For the same molecule, the Rank order (Na^+, K^+-ATPase [1]) was 4, the “Sample Solubility” value (Na^+, K^+-ATPase [1]) was “Good” and the IC50 (Na^+, K^+-ATPase [2]) was 27.9 µM. The “Inhibition (%)” value (Na^+, K^+-ATPase [3]; dose 0.50 uM) was 1.3%, the “Normalized Uptake (%)” value (Na^+, K^+-ATPase [3]; dose 0.50 uM) was 104.5% and the “Inhibition (%)” value (Na^+, K^+-ATPase [3]; dose 1.0 uM) was 0.0%. The “Normalized Uptake (%)” value (Na^+, K^+-ATPase [3]; dose 1.0 uM) was 105.6%, the “Inhibition (%)” value (Na^+, K^+-ATPase [3]; dose 5.0 uM) was 9.1% and the “Normalized Uptake (%)” value (Na^+, K^+-ATPase [3]; dose 5.0 uM) was 96.6%. For the same molecule, the “Inhibition (%)” value (Na^+, K^+-ATPase [3]; dose 10 uM) was 27.0%, the “Normalized Uptake (%)” value (Na^+, K^+-ATPase [3]; dose 10 uM) was 81.1% and the “Inhibition (%)” value (Na^+, K^+-ATPase [3]; dose 50 uM) was 61.2%. The “Normalized Uptake (%)” value (Na^+, K^+-ATPase [3]; dose 50 uM) was 51.5%, the “Inhibition (%)” value (Na^+, K^+-ATPase [3]; dose 100 uM) was 84.1% and the “Normalized Uptake (%)” value (Na^+, K^+-ATPase [3]; dose 100 uM) was 31.6%. For the same molecule, the “Inhibition (%)” value (Na^+, K^+-ATPase [3]; dose 200 uM) was 94.0%, the “Normalized Uptake (%)” value (Na^+, K^+-ATPase [3]; dose 200 uM) was 23.1% and the “Inhibition (%)” value (Na^+, K^+-ATPase [3]; dose 500 uM) was 100.0%. For the same molecule, the “Normalized Uptake (%)” value (Na^+, K^+-ATPase [3]; dose 500 uM) was 17.9% and the “Sample Solubility” value (Na^+, K^+-ATPase [3]) was “Good”.
For `C[C@]12CCC(=NOCCN3CCC(Cc4ccccc4)CC3)C=C1CCC1C2CC[C@]2(C)[C@@H](c3ccc(=O)oc3)CC[C@]12O` (some centres unmarked) [BP249, 3-[2-(4-Benzylpiperidinoethoxy)imino]-scillarinone], the IC50 (Na^+, K^+-ATPase [1]) was 5.53 µM, the Rank order (Na^+, K^+-ATPase [1]) was 4 and the “Sample Solubility” value [4] was “Good”. For the same molecule, the IC50 (Na^+, K^+-ATPase [2]) was 41.9 µM, the “Inhibition (%)” value (Na^+, K^+-ATPase [3]; dose 0.50 uM) was 0.6% and the “Normalized Uptake (%)” value (Na^+, K^+-ATPase [3]; dose 0.50 uM) was 103.0%. The “Inhibition (%)” value (Na^+, K^+-ATPase [3]; dose 1.0 uM) was 0.0%, the “Normalized Uptake (%)” value (Na^+, K^+-ATPase [3]; dose 1.0 uM) was 103.5% and the “Inhibition (%)” value (Na^+, K^+-ATPase [3]; dose 5.0 uM) was 2.6%. The “Normalized Uptake (%)” value (Na^+, K^+-ATPase [3]; dose 5.0 uM) was 100.7%, the “Inhibition (%)” value (Na^+, K^+-ATPase [3]; dose 10 uM) was 17.9% and the “Normalized Uptake (%)” value (Na^+, K^+-ATPase [3]; dose 10 uM) was 87.9%. The “Inhibition (%)” value (Na^+, K^+-ATPase [3]; dose 50 uM) was 54.2%, the “Normalized Uptake (%)” value (Na^+, K^+-ATPase [3]; dose 50 uM) was 57.3% and the “Inhibition (%)” value (Na^+, K^+-ATPase [3]; dose 100 uM) was 73.4%. For the same molecule, the “Normalized Uptake (%)” value (Na^+, K^+-ATPase [3]; dose 100 uM) was 41.0%, the “Inhibition (%)” value (Na^+, K^+-ATPase [3]; dose 200 uM) was 87.8% and the “Normalized Uptake (%)” value (Na^+, K^+-ATPase [3]; dose 200 uM) was 29.0%. The “Inhibition (%)” value (Na^+, K^+-ATPase [3]; dose 500 uM) was 100.0%, the “Normalized Uptake (%)” value (Na^+, K^+-ATPase [3]; dose 500 uM) was 18.7% and the “Sample Solubility” value (Na^+, K^+-ATPase [3]) was “Good”.
For `C[C@H]1O[C@@H](O[C@H]2[C@@H](O)C[C@H](O[C@H]3[C@@H](O)C[C@H](O[C@H]4CC[C@@]5(C)[C@H](CC[C@@H]6[C@@H]5CC[C@]5(C)[C@@H](C7=CC(=O)OC7)CC[C@]65O)C4)O[C@@H]3C)O[C@@H]2C)C[C@H](O)[C@@H]1O` [Digitoxin, reference compound], the IC50 (Na^+, K^+-ATPase [1]) was 1.1 µM, the Rank order (Na^+, K^+-ATPase [1]) was 2 and the IC50 (Na^+, K^+-ATPase [2]) was 44.9 µM. For the same molecule, the “Inhibition (%)” value (Na^+, K^+-ATPase [3]; dose 0.50 uM) was 0.0%, the “Normalized Uptake (%)” value (Na^+, K^+-ATPase [3]; dose 0.50 uM) was 100.0% and the “Inhibition (%)” value (Na^+, K^+-ATPase [3]; dose 1.0 uM) was 6.2%. For the same molecule, the “Normalized Uptake (%)” value (Na^+, K^+-ATPase [3]; dose 1.0 uM) was 93.8%, the “Inhibition (%)” value (Na^+, K^+-ATPase [3]; dose 5.0 uM) was 8.6% and the “Normalized Uptake (%)” value (Na^+, K^+-ATPase [3]; dose 5.0 uM) was 91.4%. The “Inhibition (%)” value (Na^+, K^+-ATPase [3]; dose 10 uM) was 19.8%, the “Normalized Uptake (%)” value (Na^+, K^+-ATPase [3]; dose 10 uM) was 80.2% and the “Inhibition (%)” value (Na^+, K^+-ATPase [3]; dose 50 uM) was 51.9%. The “Normalized Uptake (%)” value (Na^+, K^+-ATPase [3]; dose 50 uM) was 48.1%, the “Inhibition (%)” value (Na^+, K^+-ATPase [3]; dose 100 uM) was 76.8% and the “Normalized Uptake (%)” value (Na^+, K^+-ATPase [3]; dose 100 uM) was 23.2%. The “Inhibition (%)” value (Na^+, K^+-ATPase [3]; dose 500 uM) was 89.7%, the “Normalized Uptake (%)” value (Na^+, K^+-ATPase [3]; dose 500 uM) was 10.3% and the “Inhibition (%)” value (Na^+, K^+-ATPase [3]; dose 1000 uM) was 100.0%. The “Normalized Uptake (%)” value (Na^+, K^+-ATPase [3]; dose 1000 uM) was 0.0%.
